Measurements taken from the NIST ThermoML archive (doi:10.1021/je030151s).
Numbers after ± are expanded uncertainties.

How the values were obtained:
[1] = 101.3 kPa, Liquid; for viscosity: Capillary tube (Ostwald / Ubbelohde) method
[2] = xn = mol fraction of the nth substance listed; conditions: 101.3 kPa, Liquid, x2 = 0; for viscosity: Capillary tube (Ostwald / Ubbelohde) method

Row | Structure (SMILES) | mass density ([1]; 293.15 K) [kg/m3] | speed of sound ([1]; 293.15 K) [m/s] | viscosity ([1]; 293.15 K) [mPa·s] | mass density ([1]; 303.15 K) [kg/m3] | speed of sound ([1]; 303.15 K) [m/s] | viscosity ([1]; 303.15 K) [mPa·s] | mass density ([1]; 313.15 K) [kg/m3] | speed of sound ([1]; 313.15 K) [m/s] | viscosity ([1]; 313.15 K) [mPa·s] | viscosity ([2]; 293.15 K) [mPa·s] | mass density ([2]; 293.15 K) [kg/m3] | speed of sound ([2]; 293.15 K) [m/s] | viscosity ([2]; 303.15 K) [mPa·s] | mass density ([2]; 303.15 K) [kg/m3] | speed of sound ([2]; 303.15 K) [m/s] | viscosity ([2]; 313.15 K) [mPa·s] | mass density ([2]; 313.15 K) [kg/m3] | speed of sound ([2]; 313.15 K) [m/s]
1 | Cc1ccccc1C [1,2-dimethylbenzene] | 880.2 ± 1.2 | 1365.6 ± 3.5 | 0.8092 ± 0.0098 | 871.8 ± 1.2 | 1339 ± 3.5 | 0.7172 ± 0.0089 | 863.2 ± 1.3 | 1297.5 ± 3.4 | 0.6292 ± 0.0079 | – | – | – | – | – | – | – | – | –
2 | Cc1ccccc1C [1,2-dimethylbenzene] + CCC(=O)CC | – | – | – | – | – | – | – | – | – | 0.8092 ± 0.0098 | 880.2 ± 1.2 | 1365.6 ± 3.5 | 0.7172 ± 0.0089 | 871.8 ± 1.2 | 1339 ± 3.5 | 0.6292 ± 0.0079 | 863.2 ± 1.3 | 1297.5 ± 3.4
3 | CCc1ccccc1 [ethylbenzene] | 867.4 ± 1.2 | 1333.4 ± 3.5 | 0.6793 ± 0.0085 | 856.5 ± 1.2 | 1295.7 ± 3.4 | 0.6006 ± 0.0077 | 848.9 ± 1.3 | 1259.8 ± 3.4 | 0.5355 ± 0.007 | – | – | – | – | – | – | – | – | –
4 | CCc1ccccc1 [ethylbenzene] + CCC(=O)CC | – | – | – | – | – | – | – | – | – | 0.6793 ± 0.0085 | 867.4 ± 1.2 | 1333.4 ± 3.5 | 0.6006 ± 0.0077 | 856.5 ± 1.2 | 1295.7 ± 3.4 | 0.5355 ± 0.007 | 848.9 ± 1.3 | 1259.8 ± 3.4
5 | CCC(=O)CC [pentan-3-one] | 814.4 ± 1.1 | 1230.7 ± 3.3 | 0.4714 ± 0.0064 | 804.7 ± 1.1 | 1197.8 ± 3.3 | 0.4231 ± 0.0059 | 794.9 ± 1.2 | 1159.1 ± 3.3 | 0.3799 ± 0.0055 | – | – | – | – | – | – | – | – | –
